Tests used:
[1] = tested on: MCF-7 cells; test: Cell cycle of MCF-7 cells with IGF1; format: cell-based, human; conditions: MCF-7 cells, 24 hours
Protocol: The inhibition of the cell growth observed in vitro on the line MCF-7 should be manifested by an effect on the cell cycle. In order to reply to this question, 4·10^5 cells are inoculated into 6-well plates. […] After incubation for 24 hours, the cells are recovered for the study of the cell cycle.

[2] = tested on: IR; test: Immunoprecipitation of IR from R−/IR-A and R−/IR-B cell lysates; format: binding
Excerpt: (§1) The used cells for this study are listed thereafter: • R+: R− fibroblasts stably transfected with the IGF-I receptor (IGF-IR) cDNA • R−/IR-A: R− fibroblasts stably transfected with the insulin receptor isoform A (IR-A) cDNA • R−/IR-B:R− fibroblasts stably transfected with the insulin receptor isoform B (IR-B) cDNA • R+/IR-A: R− fibroblasts stably co-transfected with the IGF-I and the insulin receptor isoform A cDNA and, therefore, expressing hybrid receptors A (Hybrid-RsA) • R+/IR-B: R− fibroblasts stably co-transfected with the IGF-I and the insulin receptor isoform B cDNA and, therefore, expressing hybrid receptors B (Hybrid-RsB)
(§2) For the obtention of cellular lysat, cells were solubilized in RIPA buffer and 4 mg protein used for immunoprecipitation.
(§3) Following immunoprecipitation, the pellet was resuspended in 2× sample buffer and subjected to SDS-PAGE (7.5% polyacrylamide).
(§4) Filters were blotted as follows: Filters containing R+ lysates (and therefore only IGF-IR) with an anti-IGF-IR β-subunit (Santa Cruz). Filters containing lysates from all the remaining cells with an antibody anti-IR β-subunit (Santa Cruz).

[3] = tested on: Hybrid-R; test: Immunoprecipitation of Hybrid-R from R+/IR-A and R+/IR-B cell lysates; format: binding
Excerpt: as §1, §2, §3, §4

[4] = tested on: MCF-7 cells; test: Apoptosis of MCF-7 cells (Annexin V-FITC/DAPI flow cytometry); format: cell-based, human; conditions: antibody 10 μg/ml + doxorubicin 2 μg/ml, 24 hours
Protocol: As indicated above, IGF-IR is capable of conferring protection against apoptosis when it is overexpressed on the surface of cells. […] In these experiments, the MCF-7 cells are inoculated at 2·10^4/cm^2 in Petri dishes and cultured for 24 h in RPMI without phenol red supplemented with 10% of fetal calf serum (FCS). The cells are then washed twice with PBS and put back into culture in medium with 0% FCS. They are allowed an adaptation time of 10 minutes at 37° C. before the addition of the antibodies at 10 μg/ml. After an extra 10 minutes at 37° C., recombinant IGF-I (Sigma) is added to the culture medium to a final concentration of 50 ng/ml. The cells are left at 37° C. again for one hour in order to allow the attachment of the antibodies and of the IGF-I. Finally, the doxorubicin (Sigma) is added to the culture medium at 2 μg/ml and the cells are incubated for 24 hours at 37° C.
The experiments have likewise been conducted with navelbine at a concentration of 10 μg/ml.
The analysis of the cell viability is carried out by flow cytometric analysis after labeling with the annexin V-FITC (20 minutes, 4° C.) and DAPI (2 μg/ml). The percentage of dead cells considered is the labeled population Annexin+/DAPI+. The antibody 5C2 is used as a control isotype.

[5] = tested on: IRS-1; test: Tyrosine phosphorylation of IRS-1 in IGF-I-stimulated MCF7 cells; format: cell-based, human; conditions: antibodies 10 μg/ml, IGF-I 50 ng/ml
Protocol: MCF7 cells are cultured for 24 hours at 5·10^4 cells/cm^2 (75 cm^2 plates, COSTAR) in 20 ml of RPMI without phenol red, mixed with 5 mM of glutamine, penicillin/streptomycin (respectively 100 U/100 μg/ml) and 10% of fetal calf serum. After three washes in PBS, the cells were incubated for 12 hours in medium (RPMI) without phenol red, devoid of fetal calf serum and mixed with 5 mM of glutamine, penicillin/streptomycin, bovine serum albumin at 0.5 μg/ml (Sigma A-8022) and transferrin at 5 μg/ml (Sigma T8158).
For activation, the cells were first incubated at 37° C. for 2 minutes with blocking antibodies (10 μg/ml) and then IGF-I (Sigma I3769, 50 ng/ml) was added for two additional minutes. The reaction was stopped by aspiration of the incubation medium and the plates were laid on ice. […] The solutions were centrifuged at 12,000 rpm for ten minutes (4° C.) and the protein concentrations of the supernatants were quantified by BCA.
500 μg of proteins of the cell lysate were mixed with the anti-IGF-IR (Santa cruz Ref.: sc-713) for immunoprecipitation and incubated on the shaker at 4° C. for 1.5 hours. […] The supernatants were analyzed by electrophoresis on polyacrylamide SDS gel (8% Novex EC6015). […]

Hybrid-R, sequence (P08069 31-736 limits assumed): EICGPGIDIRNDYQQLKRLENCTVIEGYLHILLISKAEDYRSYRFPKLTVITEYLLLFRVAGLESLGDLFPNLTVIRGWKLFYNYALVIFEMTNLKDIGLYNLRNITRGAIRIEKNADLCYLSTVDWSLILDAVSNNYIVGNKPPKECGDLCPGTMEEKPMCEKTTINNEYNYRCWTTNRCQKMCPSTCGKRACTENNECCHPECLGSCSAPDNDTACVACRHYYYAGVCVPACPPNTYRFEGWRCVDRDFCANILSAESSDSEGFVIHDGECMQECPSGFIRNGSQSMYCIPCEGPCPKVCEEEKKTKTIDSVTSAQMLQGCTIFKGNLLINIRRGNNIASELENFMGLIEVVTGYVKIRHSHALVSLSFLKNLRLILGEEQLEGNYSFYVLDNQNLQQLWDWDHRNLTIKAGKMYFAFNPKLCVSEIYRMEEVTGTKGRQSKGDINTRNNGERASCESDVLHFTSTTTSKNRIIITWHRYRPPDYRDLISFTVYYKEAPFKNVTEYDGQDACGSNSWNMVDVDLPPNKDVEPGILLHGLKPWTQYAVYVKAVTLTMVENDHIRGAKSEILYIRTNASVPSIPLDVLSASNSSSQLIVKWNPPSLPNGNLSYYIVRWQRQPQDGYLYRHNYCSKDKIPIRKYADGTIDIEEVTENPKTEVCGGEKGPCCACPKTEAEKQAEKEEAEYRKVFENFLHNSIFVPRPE
Hybrid-R, sequence (P08069 741-1367 limits assumed): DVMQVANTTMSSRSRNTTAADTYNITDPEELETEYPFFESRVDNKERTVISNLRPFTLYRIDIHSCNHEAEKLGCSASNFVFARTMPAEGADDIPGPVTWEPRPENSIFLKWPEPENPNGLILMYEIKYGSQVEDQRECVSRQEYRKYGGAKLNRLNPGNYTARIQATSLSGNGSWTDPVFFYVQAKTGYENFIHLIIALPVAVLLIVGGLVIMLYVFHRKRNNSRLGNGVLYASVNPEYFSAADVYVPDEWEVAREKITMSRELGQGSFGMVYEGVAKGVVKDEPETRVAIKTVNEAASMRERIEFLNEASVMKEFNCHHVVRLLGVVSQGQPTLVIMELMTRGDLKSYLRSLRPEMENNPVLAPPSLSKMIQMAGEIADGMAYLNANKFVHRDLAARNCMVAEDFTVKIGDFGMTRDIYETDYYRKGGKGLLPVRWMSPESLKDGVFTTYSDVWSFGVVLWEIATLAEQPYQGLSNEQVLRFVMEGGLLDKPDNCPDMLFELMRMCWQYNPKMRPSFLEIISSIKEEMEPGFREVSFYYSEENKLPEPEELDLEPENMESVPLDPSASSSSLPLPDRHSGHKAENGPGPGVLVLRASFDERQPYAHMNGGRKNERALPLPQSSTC

Row | Substance | inhibition of IGF1-induced entry into the cell cycle [1] | immunoprecipitation of IR [2] | recognition of Hybrid-R by immunoprecipitation [3] | potentiation of doxorubicin-induced cell death [4] | inhibition of tyrosine phosphorylation of IRS-1 [5]
1 | 7C10: murine monoclonal anti-IGF-IR IgG1 secreted by the hybridoma deposited at the CNCM under the number I-2717 | significant inhibition of the entry into the cycle | Neither 7C10 nor h7C10 appreciably immunoprecipitate IR | recognizes Hybrid-R | significant increase in cell death | inhibit the phosphorylation
2 | h7C10: humanized 7C10 anti-IGF-IR antibody, isotype IgG1 (humanized 1 written 7H2HM) | significant inhibition of the entry into the cycle | Neither 7C10 nor h7C10 appreciably immunoprecipitate IR | recognizes Hybrid-R | same effect | inhibit the phosphorylation

— US8101180B2, “Anti-IGF-IR and/or anti-insulin/IGF-I hybrid receptors antibodies and uses thereof” (Pierre Fabre Medicament, priority 2002, dated 2012)
